The values that follow come from ChEMBL document CHEMBL1201862, “PubChem BioAssay data set” (2004).

Test systems include 786-0; ACHN; CAKI-1; CCRF-CEM; COLO 205; HCT-116; LOX IMVI; M14; MOLT-4; NCI-H23; NCI-H522; OVCAR-8; RXF 393; SN12C; SW-620; TK-10; UO-31; SR.
Holding throughout (assay): inhibition of tumour cell growth, NCI panel, 48 h

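These data come from cells grown in 96-well plates and exposed to compound for 48 hours at five concentrations. GI50: concentration for 50% inhibition of growth.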 The source made the active and inactive calls. Rule as the data show it: active = GI50 up to about 1.1 µM and inactive = higher. Some results are limits rather than exact numbers.

Turning to `Cc1cccc(NC(=O)CSc2nnc(Cc3ccccc3)o2)c1`, the GI50 with 786-0, in the assay on ACHN, in the assay on CAKI-1, with CCRF-CEM, with COLO 205 and in the assay on HCT-116 was > 100 µM (inactive) in each case. The GI50 in the assay with LOX IMVI, in the assay on M14, with MOLT-4, in the assay on NCI-H23, with NCI-H522 and in the assay with OVCAR-8 was > 100 µM (inactive) each time. Further, the GI50 in the assay on RXF 393, in the assay with SN12C, in the assay with SW-620, in the assay with TK-10 and in the assay with UO-31 was > 100 µM (inactive) throughout.

As to `Cc1occ2c1C(=O)CC1C2[C@@H](O)CC2C(C)(C)CCC[C@]12C` (some centres undefined), the GI50 in the assay on 786-0 is > 100 µM (inactive); in the assay on ACHN it was > 100 µM (inactive); in the assay on CCRF-CEM it was 42.7 µM (inactive); in the assay on COLO 205 it was > 100 µM (inactive); in the assay on HCT-116, > 100 µM (inactive); in the assay on M14, > 100 µM (inactive). Moreover, the GI50 was 40 µM (inactive) in the assay with MOLT-4; > 100 µM (inactive) with NCI-H23; 56.5 µM (inactive) with NCI-H522; > 100 µM (inactive) in the assay with OVCAR-8; > 100 µM (inactive) with RXF 393; > 100 µM (inactive) in the assay with SN12C. The GI50 with SR is 67.5 µM (inactive); with SW-620 it was > 100 µM (inactive); in the assay on UO-31 it was > 100 µM (inactive).

Turning to `O=C(CC1(O)C(=O)Nc2ccccc21)c1ccccc1Cl` (centres undefined), the GI50 with 786-0, in the assay on ACHN, in the assay on CAKI-1, with COLO 205, in the assay on HCT-116 and in the assay on LOX IMVI was > 100 µM (inactive) in each case. Also, the GI50 in the assay on M14 is > 100 µM (inactive); with MOLT-4, > 100 µM (inactive); in the assay with NCI-H23 it was > 100 µM (inactive); in the assay on NCI-H522, 76.6 µM (inactive); in the assay with OVCAR-8, > 100 µM (inactive); with RXF 393, > 100 µM (inactive). In addition, the GI50 in the assay on SN12C was > 100 µM (inactive); in the assay with SW-620 it was > 100 µM (inactive); in the assay on TK-10 it was > 100 µM (inactive); in the assay on UO-31, 64.9 µM (inactive).

For the molecule `CC1(C)C2CCC3(C2)CS(=O)(=O)N2OC231` (centres undefined), the GI50 with 786-0 was 16.9 µM (inactive); in the assay with ACHN, 15.9 µM (inactive); in the assay with CAKI-1 it was 16 µM (inactive); in the assay on CCRF-CEM, 24.5 µM (inactive); with COLO 205, 17.9 µM (inactive); in the assay on HCT-116, 31.3 µM (inactive). Moreover, the GI50 in the assay with LOX IMVI was 16.3 µM (inactive); with M14, 16.2 µM (inactive); in the assay with NCI-H23, 16.6 µM (inactive); in the assay on NCI-H522, 13.8 µM (inactive); with OVCAR-8, 24.8 µM (inactive); in the assay on SN12C it was 16.9 µM (inactive). For the same molecule, the GI50 in the assay with SR was > 100 µM (inactive); in the assay on SW-620, 16.5 µM (inactive); in the assay with TK-10 it was 18 µM (inactive); in the assay on UO-31, 16.1 µM (inactive).

`O=C(CSc1nnc(Cc2ccccc2)o1)Nc1ccc(Cl)cc1Cl`: the GI50 with 786-0, in the assay on ACHN, in the assay with CAKI-1, with CCRF-CEM, with COLO 205 and in the assay on HCT-116 was > 100 µM (inactive) in each case. Moreover, the GI50 in the assay on LOX IMVI, with M14, in the assay on MOLT-4, in the assay on NCI-H23, with NCI-H522 and in the assay with OVCAR-8 was > 100 µM (inactive) each time. Besides, the GI50 with RXF 393, in the assay with SN12C, in the assay on SW-620, in the assay on TK-10 and with UO-31 was > 100 µM (inactive) in each case.

As to `COC(=O)C(Cc1ccccc1)NC(=O)Cn1ccnc1[N+](=O)[O-]` (centres undefined), the GI50 in the assay with 786-0 was > 100 µM (inactive); with ACHN, > 100 µM (inactive); in the assay with CAKI-1, > 100 µM (inactive); in the assay on CCRF-CEM, > 100 µM (inactive); with COLO 205, 77.3 µM (inactive); in the assay on LOX IMVI it was > 100 µM (inactive). Also, the GI50 with M14, in the assay on MOLT-4, with NCI-H23, with NCI-H522, in the assay on OVCAR-8 and with RXF 393 was > 100 µM (inactive) in each case. Further, the GI50 in the assay on SN12C, in the assay with SW-620, with TK-10 and in the assay with UO-31 was > 100 µM (inactive) each time.

`CCNC(=O)O/N=C1\CCC2[C@@H]3CC=C4C[C@@H](OC5CCCCO5)CC[C@]4(C)C3CC[C@]12C` (some centres undefined): the GI50 in the assay with 786-0 was 2.31 µM (inactive); in the assay on ACHN, 1.45 µM (inactive); in the assay with CAKI-1, 2.5 µM (inactive); with COLO 205 it was 0.964 µM (active); with HCT-116, 4.8 µM (inactive); with LOX IMVI it was 1.58 µM (inactive). Further, the GI50 in the assay on M14 is 1.71 µM (inactive); in the assay with MOLT-4, 1.61 µM (inactive); with NCI-H23, 2.72 µM (inactive); with NCI-H522, 1.51 µM (inactive); in the assay on OVCAR-8, 3.9 µM (inactive); with RXF 393, 2.2 µM (inactive). Also, the GI50 is 2.12 µM (inactive) in the assay on SN12C, 2.45 µM (inactive) in the assay with SW-620, 2 µM (inactive) in the assay with TK-10 and 1.44 µM (inactive) in the assay with UO-31.

As for `COc1ccc(C(c2ccccc2C(=O)O)c2ccc(OC)c3ccccc23)c2ccccc12`, the GI50 in the assay with 786-0 is 15.8 µM (inactive); with ACHN, 10.4 µM (inactive); in the assay with CAKI-1 it was 28.8 µM (inactive); in the assay with CCRF-CEM, 8.79 µM (inactive); in the assay on COLO 205 it was 13 µM (inactive); in the assay with LOX IMVI it was 18 µM (inactive). The GI50 is 16.2 µM (inactive) in the assay with M14; 5.62 µM (inactive) in the assay with MOLT-4; > 10 µM (inactive) with NCI-H23; 12.6 µM (inactive) in the assay with NCI-H522; 10.5 µM (inactive) with OVCAR-8; 10.9 µM (inactive) with SN12C. Also, the results for the GI50 in the assay with SW-620, in the assay on TK-10 and with UO-31 were 14.8 µM (inactive), 19.9 µM (inactive) and 4.9 µM (inactive), respectively.

As for `O=C(CCCCCCCCC(=O)OCC1OC(n2cnc3c(=O)[nH]cnc32)C(O)C1O)OCC1OC(n2cnc3c(=O)[nH]cnc32)C(O)C1O` (centres undefined), the GI50 in the assay on 786-0, in the assay on ACHN, with CAKI-1, in the assay with CCRF-CEM, with COLO 205 and with HCT-116 was > 100 µM (inactive) throughout. In addition, the GI50 with LOX IMVI, with M14, in the assay with MOLT-4, in the assay on NCI-H23, in the assay on NCI-H522 and in the assay on OVCAR-8 was > 100 µM (inactive) each time. Moreover, the GI50 in the assay on RXF 393, in the assay on SN12C, in the assay on SW-620, in the assay with TK-10 and in the assay on UO-31 was > 100 µM (inactive) throughout.

`N#Cc1nc(C2OC(COC(=O)c3ccccc3)C(OC(=O)c3ccccc3)C2OC(=O)c2ccccc2)oc1N` (centres undefined): the GI50 is 27 µM (inactive) with 786-0; 33.7 µM (inactive) in the assay with ACHN; 26.5 µM (inactive) in the assay with CAKI-1; 3.18 µM (inactive) in the assay on CCRF-CEM; 61.4 µM (inactive) in the assay with COLO 205; 16.5 µM (inactive) with HCT-116. The GI50 in the assay on LOX IMVI is 67.1 µM (inactive); in the assay on M14, 89.7 µM (inactive); with MOLT-4 it was 5.6 µM (inactive); with NCI-H23, 19.1 µM (inactive); in the assay with NCI-H522, 5.33 µM (inactive); with OVCAR-8 it was 46.1 µM (inactive). The GI50 with RXF 393 was 14.7 µM (inactive); in the assay on SN12C, 48.2 µM (inactive); in the assay on SW-620, 12.1 µM (inactive); in the assay on TK-10, 63.5 µM (inactive); with UO-31 it was 12 µM (inactive).

On to `CCN(CC)c1cccc2c1C1(O)CCC3(CC21)OCCCCO3` (centres undefined), for which the GI50 with 786-0 is 74 µM (inactive); in the assay on ACHN, 91.8 µM (inactive); in the assay on CAKI-1, > 100 µM (inactive); in the assay on CCRF-CEM, 90.4 µM (inactive); in the assay on COLO 205, > 100 µM (inactive); in the assay on HCT-116 it was 49.3 µM (inactive). Moreover, the GI50 in the assay with LOX IMVI was 50.8 µM (inactive); in the assay on M14, > 100 µM (inactive); in the assay with MOLT-4, > 100 µM (inactive); with NCI-H23, > 100 µM (inactive); in the assay with NCI-H522, > 100 µM (inactive); in the assay on OVCAR-8 it was 44.9 µM (inactive). Moreover, the GI50 is 15.3 µM (inactive) in the assay with RXF 393; 74.1 µM (inactive) in the assay on SN12C; 69.3 µM (inactive) in the assay with SW-620; > 100 µM (inactive) in the assay on TK-10; > 100 µM (inactive) in the assay on UO-31.

Take `Cc1c(-c2ccccc2)c(=O)oc2ccc(Cl)cc12`: the GI50 in the assay on 786-0 was 36.5 µM (inactive); with CCRF-CEM it was > 100 µM (inactive); in the assay on COLO 205, > 100 µM (inactive); in the assay on HCT-116, 38.1 µM (inactive); with LOX IMVI, > 100 µM (inactive); with M14 it was 26.7 µM (inactive). Further, the GI50 is > 100 µM (inactive) in the assay with MOLT-4; 57.8 µM (inactive) with NCI-H23; 33.7 µM (inactive) in the assay with NCI-H522; 53.3 µM (inactive) in the assay with OVCAR-8; > 100 µM (inactive) in the assay with SN12C; > 100 µM (inactive) in the assay with SR. In addition, the GI50 in the assay on SW-620 was > 100 µM (inactive); in the assay with TK-10, 33.3 µM (inactive); with UO-31, > 100 µM (inactive).
